Experimental data as given in patent US20230060425A1, “FUSED BICYCLIC HETEROCYCLE DERIVATIVES AS PESTICIDES” (Bayer Aktiengesellschaft, priority 2019, published 2023).
Where two headings read alike, the source gives them in different places.

Tests used:
Assay type in all cases: in vivo
Ctenocephalides felis = Ctenocephalides felis oral test; conditions: 48 h, application rate 100 ppm, in citrated cattle blood, after 2 days, read-out: efficacy (kill in %)
How it was run: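 Adult unfed cat fleas (~20 per chamber) fed through parafilm membrane on citrated cattle blood containing compound (DMSO formulation diluted in blood to test concentration). Kill (%) scored after 2 days; 100% = all fleas dead, 0% = none.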

Myzus persicae [1] = test: Myzus persicae oral test; conditions: 120 h, application rate 4 ppm, after 5 days, read-out: efficacy
How it was run: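 Aphid feeding test: compound dissolved in acetone, diluted with water and mixed with IPL41 insect medium plus sugar, offered through parafilm to a mixed population of green peach aphids. Mortality scored after 5 days as % efficacy (100% = all aphids dead, 0% = none dead).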

Myzus persicae [2] = test: Myzus persicae spray test; conditions: foliar, 120 h, application rate 100 g/ha, Chinese cabbage leaf discs, after 5 days, read-out: efficacy
How it was run: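 Chinese cabbage leaf discs infested with all stages of Myzus persicae were sprayed with compound in acetone/DMF, diluted in water containing 1000 ppm emulsifier. Efficacy in % assessed after 5 days: 100% all aphids killed, 0% none killed.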

Spodoptera frugiperda [3] = test: Spodoptera frugiperda spray test; conditions: foliar, 168 h, application rate 100 g/ha, maize leaf discs, after 7 days, read-out: efficacy
Description: Spodoptera frugiperda—Spray Test
Solvent: • 78.0 parts by weight of acetone • 1.5 parts by weight of dimethylformamide
(§1) Emulsifier: alkylaryl polyglycol ether
To produce further test concentrations, the formulation is diluted with emulsifier-containing water.
After 7 days, the efficacy in % is determined. 100% means that all the caterpillars have been killed; 0% means that no caterpillar has been killed.

Aphis gossypii = Aphis gossypii spray test (APHIGO S); conditions: 144 h, 6 dat, read-out: % Efficacy
Description: Aphis gossypii—Spray Test (APHIGO S)
(§2) Solvent: 14 parts by weight of dimethylformamide
as §1
To produce a suitable active compound preparation, 1 part by weight of active compound is dissolved using the stated parts by weight of solvent and made up with water containing an emulsifier concentration of 1000 ppm until the desired concentration is attained. To produce further test concentrations, the formulation is diluted with emulsifier-containing water. If the addition of ammonium salts or/and penetrants is required, these are each added in a concentration of 1000 ppm to the formulation solution.
Cotton plants (Gossypium hirsutum) heavily infested by the cotton aphid (Aphis gossypii) are sprayed with an active compound formulation of the desired concentration.
After the desired time, the kill in % is determined. 100% means that all the aphids have been killed; 0% means that no aphids have been killed.

Spodoptera frugiperda [4] = test: Spodoptera frugiperda test on maize plants (SPODFR S); conditions: 6 dai, read-out: % Efficacy
Description: Spodoptera frugiperda Test (SPODFR S)
as §2
(§3) Emulsifier: 2 parts by weight of alkylaryl polyglycol ether
(§4) To produce a suitable active compound formulation, 1 part by weight of active compound is dissolved with the stated parts by weight of solvent and emulsifier and made up to the desired concentration with water. To produce further test concentrations, water is used for dilution. In the event that addition of ammonium salts or/and penetrants (rapeseed oil methyl ester) is required, these are each pipetted in at a concentration of 1000 ppm after the finished formulation solution has been diluted.
Maize plants (Zea mays) are sprayed with an active compound formulation of the desired concentration and, in each case after 5, 12 and 19 days, populated with 5 caterpillars (L2) of the fall armyworm (Spodoptera frugiperda).
(§5) The kill is determined 6 days after the infection. 100% means that all the caterpillars have been killed and 0% means that none of the caterpillars have been killed.

Heliothis armigera = Heliothis armigera test (HELIAR S); conditions: Helicoverpa armigera, 6 dai, read-out: % Efficacy
Description: Heliothis armigera Test (HELIAR S)
as §2, §3, §4
Cotton plants (Gossypium hirsutum) are sprayed with an active compound formulation of the desired concentration and, in each case after 12 and 19 days, populated with 5 caterpillars (L2) of the cotton bollworm (Heliothis armigera).
as §5

SMILES: CCS(=O)(=O)c1c(-c2nc3cc(C(F)(F)F)cnc3n2C)ncc2cc(Br)ccc12 [Example I-037, 7-Bromo-4-ethylsulfonyl-3-[3-methyl-6-(trifluoromethyl)imidazo[4,5-b]pyridin-2-yl]isoquinoline]
- pest or weed control at 100 ppm (Ctenocephalides felis): 100%
- pest or weed control at 4 ppm (Myzus persicae [1]): 100%
- pest or weed control at 100 g/ha (Myzus persicae [2]): 100%
- pest or weed control at 100 g/ha (Spodoptera frugiperda [3]): 100%
- Emax at 4 ppm (Aphis gossypii): 65%
- Emax at 0.16 ppm (Spodoptera frugiperda [4]; 120 h, infection 5 dat): 70%
- Emax at 0.16 ppm (Spodoptera frugiperda [4]; 288 h, infection 12 dat): 50%
- Emax at 0.8 ppm (Spodoptera frugiperda [4]; 288 h, infection 12 dat): 100%
- Emax at 0.8 ppm (Spodoptera frugiperda [4]; 456 h, infection 19 dat): 100%
- Emax at 0.16 ppm (Heliothis armigera; 288 h, infection 12 dat): 80%
- Emax at 0.16 ppm (Heliothis armigera; 456 h, infection 19 dat): 70%
